# Experimental data taken from patent publication US20210207099A1, “METHODS AND COMPOSITIONS FOR GENERATING CELLS OF ENDODERMAL LINEAGE AND BETA CELLS AND USES THEREOF” (priority 2018, published 2021).
# Tests used:
# Type in all cases: cell-based, human
# [1] = system: plated pancreatic progenitors; experiment: Latrunculin A at different stages of SC-β cell differentiation of plated pancreatic progenitors (flow cytometry, GSIS, insulin content, qRT-PCR)
# Excerpt: For experiments investigating the effects of plating pancreatic progenitors, cells were differentiated with the suspension protocol for stages 1-3. At the end of stage 3, clusters were single cell dispersed with TrypLE and plated onto tissue culture plates coated with various ECM proteins at 0.625×10^6 cells/cm^2. Differentiation media for the remainder of this hybrid protocol were the same as for the suspension protocol with the exception that Y-27632 and Activin A were omitted on days 2-5 of stage 4. […] A variety of ECM coatings were initially tested with this plating methodology, including collagen I (Corning, 354249), collagen IV (Corning, 354245), fibronectin (Gibco, 33016-015), vitronectin (Gibco, A14700), matrigel (Corning, 356230), gelatin (Fisher, G7-500), and laminins 111, 121, 211, 221, 411, 421, 511, and 521 (Biolamina, LNKT-0201). All subsequent experiments with this hybrid protocol were performed on collagen I.
# RNA was extracted from either whole clusters or cells directly on the plate with the RNeasy Mini Kit (Qiagen, 74016). Samples were treated with a DNAse kit (Qiagen, 79254) during extraction. The High Capacity cDNA Reverse Transcriptase Kit (Applied Biosystems, 4368814) was used to synthesize cDNA on a thermocycler (Applied Biosystems, A37028). The PowerUp SYBR Green Master Mix (Applied Biosystems, A25741) was used on a StepOnePlus (Applied Biosystems), and real time PCR results were analyzed using a ΔΔCt methodology. TBP and GUSB were both used as housekeeping genes. Primer sequences were as follows.
# Cells were single-cell dispersed with TrypLE and fixed with 4% PFA for 30 minutes. Cells were then washed with PBS and incubated with ICC solution for 45 minutes at room temperature, incubated with primary antibodies overnight at 4° C., and incubated with secondary antibodies for 2 hours at room temperature. Cells were then washed twice with ICC solution and filtered before running on the LSRII flow cytometer (BD Biosciences). Analysis was completed with FlowJo.
# Static GSIS: To assess the function of cells produced by the hybrid protocol, static GSIS was performed with cells still attached to 96 or 24-well tissue culture plates. To assess function of clusters generated with the planar protocol, approximately 30 clusters were collected and placed in tissue culture transwell inserts (MilliporeSigma, PIXP01250) in a 24-well plate. […] Cells were first incubated in a 2 mM glucose KRB solution at 37° C. for one hour, after which this solution was discarded and replaced with fresh 2 mM glucose KRB. After an additional hour, the supernatant was collected. 20 mM glucose KRB was added for the next hour, after which the supernatant was again collected. Cells were washed with fresh KRB during each solution change. Cells were then single-cell dispersed with TrypLE and counted with the Vi-Cell XR (Beckman Coulter). Supernatants from the low and high glucose challenges were quantified with a human insulin ELISA (ALPCO, 80-INSHU-E10.1), and cell counts were used to normalize insulin secretion.
# Whole SC-β cell clusters or cells attached to culture plates were washed twice thoroughly with PBS. Half of the clusters or an equivalent well of plated cells were immersed in TrypLE for cell counts on the Vi-Cell XR. For the other half of the samples, a solution of 1.5% HCl and 70% ethanol was added to either the clusters in eppendorf tubes or directly onto plated cells. After 15 minutes, the plated cells were pipetted vigorously and transferred to eppendorf tubes. The eppendorf tubes from both clusters and plated cells were kept at −20° C. for 72 hours, vortexing vigorously every 24 hours. Samples were then centrifuged at 2100 RCF for 15 minutes. […] Proinsulin and insulin secretion were normalized to the viable cell counts.
# [2] = system: HUES8 cells, intestinal differentiation protocol; experiment: Intestine differentiation with cytoskeletal compounds; details: 1 μM for the first 24 hours of stage 2
# Description: For differentiation to other endodermal lineages, HUES8 stem cells were cultured and passaged normally. Differentiations were initiated 24 hours after seeding 24-well plates at 0.521×10^6 cells/cm^2. Protocols for exocrine pancreas, intestine, and liver were adapted, from literature. Either latrunculin A or nocodazole were added as indicated in each protocol. All three differentiation protocols used the same stage 1 to induce endoderm. Stage 1 (4 days): BE1 media+100 ng/mL Activin A+3 μM CHIR99021 for the first 24 hours, followed with 3 days of BE1 containing 100 ng/mL Activin A only.
# Intestine Differentiation: Stage 2 (4 days): BE2 media+3 μM CHIR99021+500 ng/mL FGF4 (R&D Systems, 235-F4). Either 1 μM latrunculin A was added for the first 24 hours of this stage, or 1 μM nocodazole was added for the entirety of stage 2. Stage 3 (7 days): BE3 media+500 ng/mL R-spondin1 (R&D Systems, 4645-RS)+100 ng/mL EGF (R&D Systems, 236-EG)+200 nM LDN193189.
# [3] = system: HUES8 cells differentiated with the planar protocol; experiment: Latrunculin A in the completely planar SC-β cell differentiation protocol
# Description: Planar protocol: 24 hours after passaging, cells seeded onto 6 or 24-well plates at 0.313-0.521×10^6 cells/cm^2 were differentiated with a new 6 stage protocol using the following formulations, with media changes every day. Stage 1 (4 days): BE1 media+100 ng/mL Activin A+3 μM CHIR99021 for the first 24 hours, followed with 3 days of BE1 containing 100 ng/mL Activin A only. Stage 2 (2 days): BE2 media+50 ng/mL KGF. Stage 3 (2 days): BE3+50 ng/mL KGF, 200 nM LDN193189, 500 nM TPPB (Tocris, 53431), 2 μM retinoic acid, and 0.25 μM SANT1. Stage 4 (4 days): BE3+50 ng/mL KGF, 200 nM LDN193189, 500 nM TPPB, 0.1 μM retinoic acid, and 0.25 μM SANT1. Stage 5 (7 days): S5 media+10 μM ALK5i II+20 ng/mL Betacellulin+0.1 μM retinoic acid+0.25 μM SANT1+1 μM T3+1 μM XXI. 1 μM Latrunculin A was added to this media for the first 24 hours only. Stage 6 (7-25 days): Cultures were kept on the plate with ESFM for the first 7 days. To move to suspension culture, cells could be single cell dispersed with TrypLE and placed in 6 mL ESFM within a 6-well plate at a concentration of 4-5 million cells/well on an orbital shaker at 100 RPM. Assessments were performed 5-8 days after cluster aggregation.
# Cells were single-cell dispersed with TrypLE and fixed with 4% PFA for 30 minutes. Cells were then washed with PBS and incubated with ICC solution for 45 minutes at room temperature, incubated with primary antibodies overnight at 4° C., and incubated with secondary antibodies for 2 hours at room temperature. […]
# [4] = system: plated cells of the SC-β cell protocol; experiment: Bulk RNA sequencing at stage 6 of plated cells treated with latrunculin A
# Description: Cells generated with the suspension protocol were single-cell dispersed from clusters with TrypLE at the end of stage 3 and seeded onto collagen 1 coated 24-well plates at 0.625×10^6 cells/cm^2. Either 0.5 μM latrunculin A was added throughout the entirety of stage 4 or 1 μM latrunculin A was added for the first 24 hours of stage 5. After two weeks in stage 6, RNA was extracted with the RNeasy Mini Kit (Qiagen, 74016), including a DNase treatment (Qiagen, 79254) during extraction. Samples were delivered to Washington University in St. Louis Genome Technology Access Center for library preparation and sequencing. Samples were prepared by RNA depletion using Ribo-Zero according to library kit manufacturer's protocol, indexed, pooled, and sequenced on an Illumine HiSeq.
# Differential gene expression analysis was performed using EdgeR. DGEList was used to create the count object and normalized the data using the trimmed mean M-values (TMM) method with calcNormFactors. Pairwise comparisons were performed using exactTest and used topTags to obtain differentially expressed genes and their respective log fold change (log FC) and adjusted p-value (FDR). These values were used to generate volcano plots using ggplot2. Hierarchical clustering and heatmaps were performed and generated with heatmap.2 (gplots) using log CPM calculated expression levels. […]
# [5] = 24 hour 1 μM treatment, stage 5
# [6] = 1 μM for the first 24 hours of stage 5
structure (smiles),measurement,setting,value
C/C1=C/C(=O)O[C@@H]2C[C@@H](CC[C@H](C)/C=C\C=C\CC1)O[C@@](O)([C@@H]1CSC(=O)N1)C2 [latrunculin A],"endocrine induction, SC-β cell specification and GSIS",[1]; 0.5 μM added during stage 5,"greatest increase in endocrine induction, SC-β cell specification, and glucose-stimulated insulin secretion (GSIS)"
same,endocrine induction and β-cell specification,[1]; 0.5 μM throughout either stage 4 or stage 6,increased both general endocrine induction (CHGA+) and β-cell specification (NKX6-1+/c-peptide+)
same,"GSIS, optimization of duration and concentration during stage 5",[1]; 1 μM during the first 24 hours of stage 5,most benefit at the shortest and lowest dose
same,expression of endocrine genes,[1]; [5],increased expression of endocrine genes
same,expression of markers associated with other endodermal lineages,[1]; [5],reduced
same,pro-insulin/insulin ratio,[1]; [5],improved pro-insulin/insulin ratio
same,total insulin content,[1]; [5],increased total insulin content
same,markers of intestinal stem cells and Paneth cells,[2],greatly increased markers intestinal stem cells as well as Paneth cells
same,"endocrine induction, SC-β cell specification and off-target lineages",[3]; [6],greatly increased endocrine induction and SC-β cell specification while decreasing off-target lineages
same,NKX6-1 expression,[3]; added during stage 4 (0.5 μM),decreasing NKX6-1 expression
same,premature expression of NEUROG3 and its downstream targets,[3]; added during stage 4 (0.5 μM),dramatically increased premature expression of NEUROG3
same,gene expression profile at stage 6,[4]; 0.5 μM throughout stage 4,increasing intestine and stomach gene expression
same,gene expression profile at stage 6,[4]; [6],increasing expression of β cell and islet genes
